Laboratory results taken from PubChem BioAssay AID248 (DTP/NCI, 2004).
Where “and” joins values, the source holds several entries; their conditions need not be identical. Equal entries are not always repeated. Toxic doses and inconclusive results are not listed.

Tested on: L1210 leukemia ip in BDF1 mice, survival T/C
Test: NCI In Vivo Anticancer Drug Screen. Data for tumor model L1210 Leukemia (intraperitoneal) in B6D2F1 (BDF1) mice
Conditions: endpoint: mean survival time, higher = longer survival
Summary of the method: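 Each compound was tested against a transplantable tumor grown in mice. The endpoint was survival, with treated animals benchmarked against vehicle controls as a simple ratio.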

[1] = dose: 100.0 mg/kg/injection, schedule: Q01DX009 (ip), vehicle: saline with Tween-80
[2] = dose: 100.0 mg/kg/injection, schedule: Q04DX003 (ip), vehicle: saline with Tween-80
[3] = dose: 200.0 mg/kg/injection, schedule: Q04DX003 (ip), vehicle: saline with Tween-80
[4] = dose: 400.0 mg/kg/injection, schedule: Q04DX003 (ip), vehicle: saline with Tween-80
[5] = dose: 100.0 mg/kg/injection, schedule: Q04DX003 (ip), vehicle: Klucel (hydroxypropylcellulose) (HPC)
[6] = dose: 400.0 mg/kg/injection, schedule: Q04DX003 (ip), vehicle: Klucel (hydroxypropylcellulose) (HPC)
[7] = dose: 50.0 mg/kg/injection, schedule: Q01DX001 (ip), vehicle: saline
[8] = dose: 100.0 mg/kg/injection, schedule: Q01DX001 (ip), vehicle: saline
[9] = dose: 100.0 mg/kg/injection, schedule: Q01DX009 (ip), vehicle: saline
[10] = dose: 100.0 mg/kg/injection, schedule: Q04DX003 (ip), vehicle: saline
[11] = dose: 75.0 mg/kg/injection, schedule: Q01DX001 (ip), vehicle: saline
[12] = dose: 150.0 mg/kg/injection, schedule: Q01DX001 (ip), vehicle: saline
[13] = dose: 200.0 mg/kg/injection, schedule: Q04DX003 (ip), vehicle: Klucel (hydroxypropylcellulose) (HPC)
[14] = dose: 200.0 mg/kg/injection, schedule: Q01DX001 (ip), vehicle: saline
[15] = dose: 400.0 mg/kg/injection, schedule: Q01DX001 (ip), vehicle: saline
[16] = dose: 200.0 mg/kg/injection, schedule: Q04DX003 (ip), vehicle: saline
[17] = dose: 400.0 mg/kg/injection, schedule: Q04DX003 (ip), vehicle: saline
[18] = dose: 100.0 mg/kg/injection, schedule: Q01DX009 (ip), vehicle: Klucel (hydroxypropylcellulose) (HPC)
[19] = dose: 200.0 mg/kg/injection, schedule: Q01DX009 (ip), vehicle: Klucel (hydroxypropylcellulose) (HPC)
[20] = dose: 400.0 mg/kg/injection, schedule: Q01DX009 (ip), vehicle: Klucel (hydroxypropylcellulose) (HPC)

With `CCCCOP(OCCCC)Oc1ccccc1` the T/C (dose: 50.0 mg/kg/injection, schedule: Q01DX009 (ip), vehicle: saline with Tween-80) was 89 % of control, the T/C [1] was 89 % of control and the T/C [2] was 97 % of control. The T/C (dose: 200.0 mg/kg/injection, schedule: Q01DX009 (ip), vehicle: saline with Tween-80) was 100 % of control, the T/C [3] was 96 % of control and the T/C [4] was 103 % of control.
`Nc1ncnc(N)c1NC(=O)c1cc(Cl)cc(Cl)c1` was tested, and the T/C [5] was 91 % of control and the T/C [6] was 86 % of control.
For `C[CH2][Ge]1([CH2]C)[CH2]CC2(CCN(CCCN(C)C)C2)C[CH2]1`, the T/C (dose: 4.0 mg/kg/injection, schedule: Q01DX009 (ip), vehicle: saline) was 95 % of control, the T/C (dose: 8.0 mg/kg/injection, schedule: Q01DX009 (ip), vehicle: saline) was 104 % of control and the T/C (dose: 16.0 mg/kg/injection, schedule: Q01DX009 (ip), vehicle: saline) was 102 % of control. The T/C (dose: 25.0 mg/kg/injection, schedule: Q01DX001 (ip), vehicle: saline) was 92 % of control, the T/C (dose: 25.0 mg/kg/injection, schedule: Q01DX009 (ip), vehicle: saline) was 104 % of control and 107 % of control and the T/C (dose: 25.0 mg/kg/injection, schedule: Q04DX002 (ip), vehicle: saline) was 106 % of control and 111 % of control. For the same compound, the T/C (dose: 25.0 mg/kg/injection, schedule: Q04DX003 (ip), vehicle: saline) was 95 % of control, the T/C (dose: 32.0 mg/kg/injection, schedule: Q01DX009 (ip), vehicle: saline) was 104 % of control and the T/C [7] was 96 % of control. The T/C (dose: 50.0 mg/kg/injection, schedule: Q01DX009 (ip), vehicle: saline) was 98 % of control and 104 % of control, the T/C (dose: 50.0 mg/kg/injection, schedule: Q04DX002 (ip), vehicle: saline) was 98 % of control and 109 % of control and the T/C (dose: 50.0 mg/kg/injection, schedule: Q04DX003 (ip), vehicle: saline) was 91 % of control. The T/C (dose: 64.0 mg/kg/injection, schedule: Q01DX009 (ip), vehicle: saline) was 104 % of control, the T/C [8] was 110 % of control and the T/C [9] was 88 % of control and 91 % of control and 92 % of control. The T/C [10] was 95 % of control.
In the case of `O=[N+]([O-])c1ccc(S(=O)[O-])cc1.O=[N+]([O-])c1ccc(S(=O)[O-])cc1.[Zn+2]`, the T/C [11] was 102 % of control and the T/C [12] was 110 % of control.
For `ClCCN(CC1C(c2ccccc2)C1c1ccccc1)C1CCCCC1` (stereo not drawn), the T/C (dose: 1.5 mg/kg/injection, schedule: Q04DX002 (ip), vehicle: Klucel (hydroxypropylcellulose) (HPC)) was 104 % of control, the T/C (dose: 3.1 mg/kg/injection, schedule: Q04DX002 (ip), vehicle: Klucel (hydroxypropylcellulose) (HPC)) was 92 % of control and the T/C (dose: 6.25 mg/kg/injection, schedule: Q04DX002 (ip), vehicle: Klucel (hydroxypropylcellulose) (HPC)) was 92 % of control.
In the case of `Cc1c2cnccc2c(C)c2c1c1ccccc1n2CCCCl`, the T/C (dose: 100.0 mg/kg/injection, schedule: Q01DX001 (ip), vehicle: Klucel (hydroxypropylcellulose) (HPC)) was 102 % of control, the T/C [5] was 96 % of control and the T/C (dose: 200.0 mg/kg/injection, schedule: Q01DX001 (ip), vehicle: Klucel (hydroxypropylcellulose) (HPC)) was 96 % of control. For the same compound, the T/C [13] was 94 % of control, the T/C (dose: 400.0 mg/kg/injection, schedule: Q01DX001 (ip), vehicle: Klucel (hydroxypropylcellulose) (HPC)) was 94 % of control and the T/C [6] was 96 % of control.
`CS(=O)(=O)c1cccc(N)c1` was tested, and the T/C [8] was 102 % of control, the T/C [14] was 91 % of control and the T/C [15] was 98 % of control.
With `O=c1oc2ccc(Cl)cc2c(OCCO)c1Cl` the T/C [2] was 94 % of control, the T/C [3] was 96 % of control and the T/C [4] was 86 % of control.
For `NCCCc1c(-c2ccccc2)nc(N)[nH]c1=O`, the T/C [7] was 108 % of control, the T/C [8] was 110 % of control and the T/C [14] was 98 % of control.
`Cc1c(Cl)cccc1Nc1n[nH]c(=S)s1` was tested, and the T/C (dose: 75.0 mg/kg/injection, schedule: Q01DX001 (ip), vehicle: other) was 98 % of control, the T/C (dose: 150.0 mg/kg/injection, schedule: Q01DX001 (ip), vehicle: other) was 98 % of control and the T/C (dose: 300.0 mg/kg/injection, schedule: Q01DX001 (ip), vehicle: other) was 93 % of control.
In the case of `CN(C)CC(=O)O`, the T/C [9] was 94 % of control, the T/C (dose: 200.0 mg/kg/injection, schedule: Q01DX009 (ip), vehicle: saline) was 94 % of control and the T/C (dose: 400.0 mg/kg/injection, schedule: Q01DX009 (ip), vehicle: saline) was 94 % of control.
For `O=C(Cl)c1cc(Cl)nc2c(Cl)cc(Cl)cc12`, the T/C [11] was 86 % of control, the T/C [12] was 94 % of control and the T/C (dose: 300.0 mg/kg/injection, schedule: Q01DX001 (ip), vehicle: saline) was 90 % of control.
For `COC(=O)CCNC(=O)C1CSC(C)(C)N1C=O` (stereo not drawn), the T/C [10] was 97 % of control, the T/C [16] was 97 % of control and the T/C [17] was 90 % of control.
For `COc1cc(/C=C2/N=C(C)OC2=O)cc(Cl)c1OC`, the T/C [8] was 87 % of control, the T/C [14] was 90 % of control and the T/C [15] was 87 % of control.
`C=COC(=O)Sc1c(Cl)c(Cl)c(Cl)c(Cl)c1Cl` was tested, and the T/C [7] was 100 % of control, the T/C [8] was 97 % of control and the T/C [14] was 103 % of control. The T/C [15] was 92 % of control.
`NC(=O)N/N=C/c1ccccc1` was tested, and the T/C [18] was 96 % of control, the T/C (dose: 100.0 mg/kg/injection, schedule: Q04DX002 (ip), vehicle: Klucel (hydroxypropylcellulose) (HPC)) was 89 % of control and the T/C [19] was 96 % of control. The T/C (dose: 200.0 mg/kg/injection, schedule: Q04DX002 (ip), vehicle: Klucel (hydroxypropylcellulose) (HPC)) was 100 % of control, the T/C [20] was 111 % of control and the T/C (dose: 400.0 mg/kg/injection, schedule: Q04DX002 (ip), vehicle: Klucel (hydroxypropylcellulose) (HPC)) was 104 % of control.
With `C1CSCSC1` the T/C (dose: 12.5 mg/kg/injection, schedule: Q01DX009 (ip), vehicle: Klucel (hydroxypropylcellulose) (HPC)) was 100 % of control, the T/C (dose: 12.5 mg/kg/injection, schedule: Q04DX003 (ip), vehicle: Klucel (hydroxypropylcellulose) (HPC)) was 101 % of control and the T/C (dose: 25.0 mg/kg/injection, schedule: Q01DX009 (ip), vehicle: Klucel (hydroxypropylcellulose) (HPC)) was 95 % of control. For the same compound, the T/C (dose: 25.0 mg/kg/injection, schedule: Q04DX003 (ip), vehicle: Klucel (hydroxypropylcellulose) (HPC)) was 97 % of control and the T/C (dose: 50.0 mg/kg/injection, schedule: Q04DX003 (ip), vehicle: Klucel (hydroxypropylcellulose) (HPC)) was 100 % of control.
For `CCCCC(CC)CCC(O)CCC(CC)CC` (stereo not drawn), the T/C [5] was 102 % of control, the T/C [13] was 98 % of control and the T/C [6] was 102 % of control.
In the case of `CCOC(=O)C(C(=O)OCC)C1C=CCC1` (stereo not drawn), the T/C [18] was 104 % of control, the T/C [5] was 98 % of control and the T/C [19] was 96 % of control. The T/C [13] was 97 % of control, the T/C [20] was 91 % of control and the T/C [6] was 108 % of control.
In the case of `N#Cc1cnc(SCC(=O)O)nc1N`, the T/C [8] was 96 % of control, the T/C [14] was 102 % of control and the T/C [15] was 102 % of control.
`COc1ccc(OC)c(CCCC(=O)O)c1` was tested, and the T/C (dose: 50.0 mg/kg/injection, schedule: Q01DX001 (ip), vehicle: carboxymethylcellulose (CMC)) was 108 % of control, the T/C (dose: 100.0 mg/kg/injection, schedule: Q01DX001 (ip), vehicle: carboxymethylcellulose (CMC)) was 104 % of control and the T/C (dose: 200.0 mg/kg/injection, schedule: Q01DX001 (ip), vehicle: carboxymethylcellulose (CMC)) was 104 % of control. The T/C (dose: 400.0 mg/kg/injection, schedule: Q01DX001 (ip), vehicle: carboxymethylcellulose (CMC)) was 102 % of control.
For `C(=N\Nc1nn[nH]n1)/c1ccccc1`, the T/C [1] was 202 % of control, the T/C [2] was 95 % of control and the T/C [3] was 97 % of control. The T/C [4] was 103 % of control.
With `O=C(O)c1cc(-c2cccs2)c(C(=O)O)s1` the T/C (dose: 100.0 mg/kg/injection, schedule: Q04DX003 (ip), vehicle: other) was 103 % of control and the T/C (dose: 200.0 mg/kg/injection, schedule: Q04DX003 (ip), vehicle: other) was 93 % of control.
For `CCC1CC2CCC(c3cc4c(cc3OC)N(C)C3C(O)(C(=O)OC)C(OC(C)=O)C5(CC)C=CCN6CCC43C65)c3[nH]c4ccccc4c3CCN(C1)C2` (stereo not drawn), the T/C (dose: 0.8 mg/kg/injection, schedule: Q01DX001 (ip), vehicle: saline) was 97 % of control, the T/C (dose: 1.6 mg/kg/injection, schedule: Q01DX001 (ip), vehicle: saline) was 97 % of control and the T/C (dose: 3.2 mg/kg/injection, schedule: Q01DX001 (ip), vehicle: saline) was 97 % of control. For the same compound, the T/C (dose: 6.4 mg/kg/injection, schedule: Q01DX001 (ip), vehicle: saline) was 100 % of control.
For `O=C1N=C(c2ccccc2)C(c2ccccc2)=N1`, the T/C [10] was 96 % of control, the T/C [16] was 90 % of control and the T/C [17] was 96 % of control.
